A melting point compilation (Tetko et al.; mined from patent text by program, amines drawn as free bases though some values may be those of a salt)

Q: Which melting point does the source give for CC1=CC(COC(c2ccccc2)(c2ccccc2)c2ccccc2)O[C@H]1c1coc2c(N)ncnc12 (some centres undefined) here?
A: 128 to 132 °C

Q: With Oc1ccc2c(ccc3ccccc32)c1 as the compound, how does the melting point read?
A: 165 to 167 °C

Q: For O=C(NC(Cc1c[nH]c2ccccc12)C(=O)CCc1cc(C(F)(F)F)cc(C(F)(F)F)c1)c1ccccc1 (centres undefined), which melting point is on record?
A: 119 to 122 °C

Q: For CCN1C(=O)C(C(=O)Nc2cccc(S(C)=O)c2)c2cc3c(cc21)CCO3 (centres undefined), which melting point is on record?
A: 180 to 185 °C

Q: For Cc1c(/C=C/c2cccc([N+](=O)[O-])c2C)cccc1[N+](=O)[O-], which melting point is on record?
A: 246 °C

Q: With CC(C)n1cc(Cc2cc3cccc(-c4cccc(C(=O)NCCO)c4)c3s2)ccc1=O as the compound, how does the melting point read?
A: 178 to 183 °C

Q: With O=C(c1ccc(Br)cc1)c1cccc2cc[nH]c12 as the compound, how does the melting point read?
A: 162 to 164 °C

Q: With CCSC(c1ccc(Cl)cc1Cl)C(C(=O)C(C)(C)CF)n1cncn1 (centres undefined) as the compound, how does the melting point read?
A: 130 °C

Q: With CCCCc1nn(C)c2c1CCc1c(C(N)=O)sc(Oc3ccc4c(c3)OCO4)c1-2 as the compound, how does the melting point read?
A: 161 to 162 °C

Q: Which melting point does the source give for COc1ccc(-n2cnc3cc(N)ccc32)cc1 here?
A: 44 to 45 °C

Q: Which melting point does the source give for COc1ccc(CCNc2ncnc3occ(C)c23)cc1 here?
A: 184 °C

Q: For CSC(=C[N+](=O)[O-])NCCSCc1ncccc1Br, which melting point is on record?
A: 79 to 80 °C

Q: Which melting point does the source give for Nc1ccc(C(c2ccc(F)cc2)n2ccnc2)cc1[N+](=O)[O-] (centres undefined) here?
A: 147 °C

Q: Which melting point does the source give for COC(=O)C1=C(C)NC(C)=C(C(=O)OC)C1C here?
A: 155 to 156 °C

Q: For Cn1ncnc1COc1nc2c(-c3ccc(F)cc3)nncn2c1-c1ccccc1, which melting point is on record?
A: 130 °C

Q: Which melting point does the source give for CCN1CCc2cc(Nc3ncc(Cl)c(Nc4ccccc4C(=O)NC)n3)c(OC)cc2CC1 here?
A: 195 to 211 °C

Q: With CS(=O)(=O)NC1CCN(C(=O)Cn2nc(-c3ccncc3)cc2Cc2ccc(F)cc2)CC1 as the compound, how does the melting point read?
A: 128 to 139 °C

Q: Which melting point does the source give for CCCCCCCCCCCCCCCCOC(=O)NCCN1CCCCC1 here?
A: 48 °C

Q: Which melting point does the source give for Cn1c(-c2ccc(-c3ccco3)cc2)cnc1[C@H](Cc1ccccn1)N(C=O)c1cc2cc(Cl)ccc2o1 here?
A: 144 to 146 °C

Q: Which melting point does the source give for CN1CCCCC1=C1C(=O)N(c2cccc(Cl)c2)c2ccccc21 here?
A: 162 to 165 °C

Q: Which melting point does the source give for COc1cc(Cc2cc3cccc(-c4cccc(C(=O)NCCC#N)c4)c3s2)ccc1F here?
A: 158 to 159 °C

Q: For Cc1cc(Cl)nn2cnnc12, which melting point is on record?
A: 134 to 136 °C

Q: Which melting point does the source give for CNC(=O)N(O)C(C)c1ccc(C)c(Br)c1 (centres undefined) here?
A: 107 to 108 °C

Q: With COCOc1ccc(OCc2ccccc2)c(CBr)c1 as the compound, how does the melting point read?
A: 55 to 57 °C

Q: With N=C(Nc1cccc(NC(=O)/C=C/c2cccc(Cl)c2)c1)c1ccccc1 as the compound, how does the melting point read?
A: 260 to 262 °C

Q: Which melting point does the source give for NCCc1c[nH]c2ccc3c(=O)n(CCc4ccccc4)ccc3c12 here?
A: 162 to 166 °C

Q: With Cc1c2c(c(C)c3c1OC(C)(CI)C3)N(C=O)C(C)(C)C2 (centres undefined) as the compound, how does the melting point read?
A: 124 to 126 °C

Q: With O=Cc1cc(Br)c(C=O)cc1Br as the compound, how does the melting point read?
A: 184 to 189 °C

Q: With Fc1ccc(-c2ncn(C3CCNCC3)c2-c2ccnc(Oc3cccc(F)c3)n2)cc1 as the compound, how does the melting point read?
A: 155 to 156 °C

Q: For FC(F)(F)c1cccc(Nc2ccccc2-c2n[nH]c(=S)s2)c1, which melting point is on record?
A: 140 to 142 °C

Q: For O=P(Cc1ccc(O)cc1)(c1ccccc1)c1ccccc1, which melting point is on record?
A: 125 °C

Q: With CCOC(=O)c1cc2c(F)c(Cl)ccc2[nH]1 as the compound, how does the melting point read?
A: 143 to 145 °C

Q: For Cc1ccc(C(C)N(O)C(N)=S)s1 (centres undefined), which melting point is on record?
A: 155 °C

Q: With Cc1nccc2[nH]c(=O)c(-c3noc(C4CC4)n3)cc12 as the compound, how does the melting point read?
A: 259 to 260 °C

Q: For CN1CCN(c2c(F)cc3c(=O)c(C(=O)O)cn(-c4ccc(O)cc4)c3c2F)CC1, which melting point is on record?
A: > 300 °C

Q: For CC(C)(O)c1ccc(CC(=O)Nc2cccnc2Oc2ccc(F)cc2)cc1, which melting point is on record?
A: 135 to 137 °C

Q: Which melting point does the source give for O=C(NC(=O)c1c(Cl)cccc1Cl)Nc1noc(-c2ccc(C(F)(F)F)cc2)c1Cl here?
A: 237 to 238 °C

Q: For COc1ccccc1C1CC(=O)C(C(C)=O)C(=O)C1 (centres undefined), which melting point is on record?
A: 65 to 66 °C

Q: With COC(=O)N(C(=O)c1ccc(C2=NOC(c3cc(Cl)cc(Cl)c3)(C(F)(F)F)C2)cc1C)c1cncnc1 (centres undefined) as the compound, how does the melting point read?
A: 72 to 76 °C

Q: For CC(C)C(O)C(O)C(O)C(CC1CCCCC1)NC(=O)OC(C)(C)C (centres undefined), which melting point is on record?
A: 151 to 152 °C

Q: With Oc1c(Br)cc(-c2cccc3sc4ccccc4c23)cc1Br as the compound, how does the melting point read?
A: 128 to 130 °C

Q: For O=C(NCCn1ccccc1=O)c1cccnc1, which melting point is on record?
A: 158 to 159 °C

Q: For Cc1cc(C(=O)O)n(-c2ccc(F)cc2)n1, which melting point is on record?
A: 188 °C

Q: Which melting point does the source give for O=C1NCC(c2ccc(F)cc2)N1CCCCS (centres undefined) here?
A: 102 to 104 °C

Q: For CCOC(=O)c1cc(CCc2cc(OC)ccc2OC)ccc1NC(C)=O, which melting point is on record?
A: 93 °C

Q: Which melting point does the source give for CC(C)(O)C#Cc1ccc(-c2ccc(F)cc2)cc1 here?
A: 118 °C

Q: With O=C1N=C(NN2CCCC2)SC1=Cc1cccc(-c2cc(F)c(O)c(C34CC5CC(CC(C5)C3)C4)c2)c1 as the compound, how does the melting point read?
A: 293 to 296 °C

Q: With CCOc1ccccc1N(C[C@H]1CCC[C@H](CN(C(=O)Nc2ccc(N(C)C)cc2)c2ccccc2OCC)C1)C(=O)Nc1ccc(N(C)C)cc1 (relative stereo) as the compound, how does the melting point read?
A: 130 to 135 °C

Q: For CCCCCCCCCCCCCC(O)CNCCCCCCNCC(O)CCCCCCCCCCCCC (centres undefined), which melting point is on record?
A: 117 to 124 °C

Q: For COc1ccc2c(c1)c(-c1[nH]c3ncccc3c1F)cn2C, which melting point is on record?
A: 248 to 250 °C

Q: Which melting point does the source give for Cc1cccc2nc(NC(=N)N)[nH]c12 here?
A: > 260 °C

Q: For O=c1[nH]nc(Cl)cc1Nc1ccncn1, which melting point is on record?
A: > 300 °C

Q: With CCCc1c(C(=O)OCC)nc2c(CCC)c3oc(C(=O)OCC)cc(=O)c3cc2c1Cl as the compound, how does the melting point read?
A: 145 to 147 °C

Q: With C=Cc1ncn2c1[C@@H]1CCN1C(=O)c1c(Cl)cccc1-2 as the compound, how does the melting point read?
A: 171 to 172 °C

Q: With Cc1cccc(C(=O)Cc2ccnc(NC(=O)c3ccccc3)c2)c1 as the compound, how does the melting point read?
A: 67 to 69 °C

Q: With Cc1c(Br)ccc(S(C)(=O)=O)c1C=NO as the compound, how does the melting point read?
A: 192 to 194 °C

Q: Which melting point does the source give for Cc1nc(-c2ccc(F)cc2)c(-c2ccc(S(C)(=O)=O)cc2)o1 here?
A: 158 to 159 °C

Q: For CCCc1nc2c(C)ccc(OCc3ccccc3)c2[nH]1, which melting point is on record?
A: 192 to 194 °C

Q: Which melting point does the source give for Cc1cc2c(nc1C(O)c1cccc(Cl)c1)CCCCC2 (centres undefined) here?
A: 123 to 125 °C

Q: Which melting point does the source give for COc1ccc(C(CC(N)=O)N2C(=O)c3ccccc3C2=O)cc1 (centres undefined) here?
A: 183 to 188 °C

Q: For COC(=O)N(Oc1cc(Cl)cc(Cl)c1)C(=O)N(C)C(C)C, which melting point is on record?
A: 67 to 69 °C

Q: For Cc1ncnc(O)c1Cl, which melting point is on record?
A: 250 to 251 °C

Q: For CC(C)(C)OC(=O)C(CNC(=O)c1ccc(O)cc1)NC(=O)OCc1ccccc1 (centres undefined), which melting point is on record?
A: 69 °C

Q: With CCC1CC2C3CCC4=CC(=O)CCC4=C3C=CC2(C)C1O (centres undefined) as the compound, how does the melting point read?
A: 139 to 141 °C

Q: For CC(C)c1nn(-c2ccc(C(F)(F)F)cn2)cc1CCCOc1ccccc1CC(=O)O, which melting point is on record?
A: 132 to 133 °C

Q: Which melting point does the source give for CCOC(=O)NC(=O)C1c2ccccc2Sc2ccccc21 here?
A: 179 to 182 °C

Q: Which melting point does the source give for CCOc1cc2c(cc1OC)C(c1ccc(C(=O)O)cc1)=N[C@@H]1CCOC[C@H]21 here?
A: 203 to 205 °C

Q: With OC1COC(c2ccc(Cl)cc2)OC1 (centres undefined) as the compound, how does the melting point read?
A: 95 to 100 °C

Q: For CCCc1c(OCCCCCOc2ccc(C(=O)c3ccc(C(=O)O)cc3)cc2CCC(=O)O)ccc2c1OCCC2=O, which melting point is on record?
A: 175 to 177 °C

Q: For CC(CCNc1cccc(-c2ccnc3c(C(=O)c4cccs4)cnn23)c1)c1ccccc1 (centres undefined), which melting point is on record?
A: 64 to 68 °C

Q: With COc1ccc(CS(=O)CC(=O)NO)cc1 (centres undefined) as the compound, how does the melting point read?
A: 160 °C

Q: Which melting point does the source give for COc1cc(C(C)=O)c(OC)cc1C here?
A: 75 to 77 °C

Q: For CC(C)(C)OC(=O)n1nc2nc3n(c(=O)c2c1N)CCS3, which melting point is on record?
A: > 300 °C

Q: For Cc1nc(N2CCN(C)CC2)nc(N)c1-c1cccc(Br)c1, which melting point is on record?
A: 120 to 122 °C
